Test results: ChEMBL document CHEMBL4507324 (2021)

What was measured:
Settings in all cases: Compound concentration 100.0 nM
[1] = target: Atypical kinase COQ8A, mitochondrial (Homo sapiens) (UniProt Q8NI60)
[2] = target: RAC-alpha serine/threonine-protein kinase (Homo sapiens) (UniProt P31749)
[3] = target: Calcium/calmodulin-dependent protein kinase type 1 (Homo sapiens) (UniProt Q14012)
[4] = target: Cyclin-dependent kinase 4 (Homo sapiens) (UniProt P11802)
[5] = target: Cyclin-dependent kinase-like 5 (Homo sapiens) (UniProt O76039)
[6] = target: Serine/threonine-protein kinase Chk1 (Homo sapiens) (UniProt O14757)
[7] = target: Macrophage colony-stimulating factor 1 receptor (Homo sapiens) (UniProt P07333)
[8] = target: Eukaryotic translation initiation factor 2-alpha kinase 1 (Homo sapiens) (UniProt Q9BQI3)
[9] = target: Ephrin type-A receptor 1 (Homo sapiens) (UniProt P21709)
[10] = target: Ephrin type-B receptor 1 (Homo sapiens) (UniProt P54762)
[11] = target: Ephrin type-B receptor 4 (Homo sapiens) (UniProt P54760)
[12] = test system: Receptor-type tyrosine-protein kinase FLT3 (Homo sapiens), P36888 [D835Y]
[13] = test system: Receptor-type tyrosine-protein kinase FLT3 (Homo sapiens), P36888 [UNDEFINED MUTATION]
[14] = test system: Receptor-type tyrosine-protein kinase FLT3 (Homo sapiens), P36888 [UNDEFINED MUTATION]; remark: listed apart in the source
[15] = target: Mitogen-activated protein kinase 9 (Homo sapiens) (UniProt P45984)
[16] = target: Mast/stem cell growth factor receptor Kit (Homo sapiens) (UniProt P10721)
[17] = target: Tyrosine-protein kinase Lck (Homo sapiens) (UniProt P06239)
[18] = test system: Leucine-rich repeat serine/threonine-protein kinase 2 (Homo sapiens), Q5S007 [G2019S]
[19] = target: Mitogen-activated protein kinase kinase kinase kinase 4 (Homo sapiens) (UniProt O95819)
[20] = target: Mitogen-activated protein kinase kinase kinase kinase 5 (Homo sapiens) (UniProt Q9Y4K4)
[21] = target: MAP kinase-activated protein kinase 2 (Homo sapiens) (UniProt P49137)
[22] = target: MAP/microtubule affinity-regulating kinase 3 (Homo sapiens) (UniProt P27448)
[23] = target: Dual specificity mitogen-activated protein kinase kinase 3 (Homo sapiens) (UniProt P46734)
[24] = test system: Hepatocyte growth factor receptor (Homo sapiens), P08581 [M1250T]
[25] = target: Misshapen-like kinase 1 (Homo sapiens) (UniProt Q8N4C8)
[26] = target: Dual specificity mitogen-activated protein kinase kinase 7 (Homo sapiens) (UniProt O14733)
[27] = target: Muscle, skeletal receptor tyrosine-protein kinase (Homo sapiens) (UniProt O15146)
[28] = target: Serine/threonine-protein kinase 38 (Homo sapiens) (UniProt Q15208)
[29] = target: Serine/threonine-protein kinase Nek2 (Homo sapiens) (UniProt P51955)
[30] = target: Serine/threonine-protein kinase OSR1 (Homo sapiens) (UniProt O95747)
[31] = target: Serine/threonine-protein kinase PAK 3 (Homo sapiens) (UniProt O75914)
[32] = target: Phosphatidylinositol 4,5-bisphosphate 3-kinase catalytic subunit delta isoform (Homo sapiens) (UniProt O00329)
[33] = target: Phosphatidylinositol 5-phosphate 4-kinase type-2 beta (Homo sapiens) (UniProt P78356)
[34] = target: Phosphatidylinositol 5-phosphate 4-kinase type-2 gamma (Homo sapiens) (UniProt Q8TBX8)
[35] = target: Serine/threonine-protein kinase PLK3 (Homo sapiens) (UniProt Q9H4B4)
[36] = target: Protein kinase C iota type (Homo sapiens) (UniProt P41743)
[37] = target: cGMP-dependent protein kinase 1 (Homo sapiens) (UniProt Q13976)
[38] = target: Protein-tyrosine kinase 2-beta (Homo sapiens) (UniProt Q14289)
[39] = test system: Proto-oncogene tyrosine-protein kinase receptor Ret (Homo sapiens), P07949 [V804M]
[40] = target: Rho-associated protein kinase 1 (Homo sapiens) (UniProt Q13464)
[41] = target: Ribosomal protein S6 kinase alpha-5 (Homo sapiens) (UniProt O75582)
[42] = target: Ribosomal protein S6 kinase alpha-6 (Homo sapiens) (UniProt Q9UK32)
[43] = target: Mitogen-activated protein kinase kinase kinase 7 (Homo sapiens) (UniProt O43318)
[44] = target: Serine/threonine-protein kinase TBK1 (Homo sapiens) (UniProt Q9UHD2)
[45] = target: Phosphatidylinositol 3-kinase catalytic subunit type 3 (Homo sapiens) (UniProt Q8NEB9)

Measured: residual activity

Sequence of Dual specificity mitogen-activated protein kinase kinase 7 (Homo sapiens) (O14733 whole entry): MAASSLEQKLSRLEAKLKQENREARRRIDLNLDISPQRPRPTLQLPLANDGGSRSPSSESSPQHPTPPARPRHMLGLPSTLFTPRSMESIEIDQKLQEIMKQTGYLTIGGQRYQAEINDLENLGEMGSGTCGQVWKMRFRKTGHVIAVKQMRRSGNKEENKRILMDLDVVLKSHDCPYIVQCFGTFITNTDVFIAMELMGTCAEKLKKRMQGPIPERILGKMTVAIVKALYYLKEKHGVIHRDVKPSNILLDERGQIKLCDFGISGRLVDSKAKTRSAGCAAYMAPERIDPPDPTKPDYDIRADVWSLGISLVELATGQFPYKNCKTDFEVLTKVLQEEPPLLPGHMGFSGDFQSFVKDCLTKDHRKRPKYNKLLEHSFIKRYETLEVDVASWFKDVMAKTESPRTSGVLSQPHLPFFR
Sequence of Protein kinase C iota type (Homo sapiens) (P41743 whole entry): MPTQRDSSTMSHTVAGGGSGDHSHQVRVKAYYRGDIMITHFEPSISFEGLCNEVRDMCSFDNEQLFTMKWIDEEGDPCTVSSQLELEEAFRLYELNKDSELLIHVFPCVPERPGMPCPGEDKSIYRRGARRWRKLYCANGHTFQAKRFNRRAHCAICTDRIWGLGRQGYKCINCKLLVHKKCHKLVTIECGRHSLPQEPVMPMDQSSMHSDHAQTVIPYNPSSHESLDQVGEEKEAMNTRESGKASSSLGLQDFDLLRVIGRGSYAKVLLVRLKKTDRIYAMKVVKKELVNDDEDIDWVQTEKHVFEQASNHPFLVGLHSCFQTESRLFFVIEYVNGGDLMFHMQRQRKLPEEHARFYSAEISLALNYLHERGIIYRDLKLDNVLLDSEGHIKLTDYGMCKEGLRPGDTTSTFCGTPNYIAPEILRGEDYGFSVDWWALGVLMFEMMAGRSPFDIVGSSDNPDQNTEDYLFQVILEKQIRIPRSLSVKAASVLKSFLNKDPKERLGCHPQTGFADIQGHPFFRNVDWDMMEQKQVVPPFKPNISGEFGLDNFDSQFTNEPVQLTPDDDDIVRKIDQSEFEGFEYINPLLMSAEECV
Sequence of MAP/microtubule affinity-regulating kinase 3 (Homo sapiens) (P27448 whole entry, looked up): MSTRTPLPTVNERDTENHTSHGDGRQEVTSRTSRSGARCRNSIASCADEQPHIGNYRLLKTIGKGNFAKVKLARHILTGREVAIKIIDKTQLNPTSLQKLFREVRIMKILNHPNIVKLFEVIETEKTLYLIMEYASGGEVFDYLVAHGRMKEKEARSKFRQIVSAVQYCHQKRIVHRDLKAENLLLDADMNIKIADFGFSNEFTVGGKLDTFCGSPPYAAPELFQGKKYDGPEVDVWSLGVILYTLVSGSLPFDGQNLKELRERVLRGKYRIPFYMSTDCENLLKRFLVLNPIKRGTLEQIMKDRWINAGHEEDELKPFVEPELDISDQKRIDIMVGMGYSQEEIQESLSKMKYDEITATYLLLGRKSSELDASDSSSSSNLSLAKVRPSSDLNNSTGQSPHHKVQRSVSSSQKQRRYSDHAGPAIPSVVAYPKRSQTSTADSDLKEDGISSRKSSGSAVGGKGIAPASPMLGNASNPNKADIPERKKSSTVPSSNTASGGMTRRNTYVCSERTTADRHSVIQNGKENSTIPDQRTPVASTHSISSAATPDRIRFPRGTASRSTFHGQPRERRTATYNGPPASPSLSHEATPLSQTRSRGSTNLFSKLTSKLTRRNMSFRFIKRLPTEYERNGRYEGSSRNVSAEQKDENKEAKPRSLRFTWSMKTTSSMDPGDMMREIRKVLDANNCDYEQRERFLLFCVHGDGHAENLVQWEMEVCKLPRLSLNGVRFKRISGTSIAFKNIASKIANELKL
Sequence of RAC-alpha serine/threonine-protein kinase (Homo sapiens) (P31749 whole entry): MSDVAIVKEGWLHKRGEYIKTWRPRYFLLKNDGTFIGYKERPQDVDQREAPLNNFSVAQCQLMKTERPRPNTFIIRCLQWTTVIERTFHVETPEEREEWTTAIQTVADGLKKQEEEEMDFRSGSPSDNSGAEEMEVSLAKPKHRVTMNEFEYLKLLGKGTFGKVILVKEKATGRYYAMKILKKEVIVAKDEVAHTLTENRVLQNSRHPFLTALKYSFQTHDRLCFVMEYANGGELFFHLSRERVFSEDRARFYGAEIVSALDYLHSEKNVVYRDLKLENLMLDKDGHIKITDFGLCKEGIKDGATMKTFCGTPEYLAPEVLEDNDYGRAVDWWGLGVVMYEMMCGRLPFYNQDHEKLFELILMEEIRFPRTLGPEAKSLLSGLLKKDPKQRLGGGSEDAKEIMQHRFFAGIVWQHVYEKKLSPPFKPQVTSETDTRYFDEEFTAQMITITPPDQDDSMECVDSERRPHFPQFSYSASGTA
Sequence of Atypical kinase COQ8A, mitochondrial (Homo sapiens) (Q8NI60 163-647 limits assumed): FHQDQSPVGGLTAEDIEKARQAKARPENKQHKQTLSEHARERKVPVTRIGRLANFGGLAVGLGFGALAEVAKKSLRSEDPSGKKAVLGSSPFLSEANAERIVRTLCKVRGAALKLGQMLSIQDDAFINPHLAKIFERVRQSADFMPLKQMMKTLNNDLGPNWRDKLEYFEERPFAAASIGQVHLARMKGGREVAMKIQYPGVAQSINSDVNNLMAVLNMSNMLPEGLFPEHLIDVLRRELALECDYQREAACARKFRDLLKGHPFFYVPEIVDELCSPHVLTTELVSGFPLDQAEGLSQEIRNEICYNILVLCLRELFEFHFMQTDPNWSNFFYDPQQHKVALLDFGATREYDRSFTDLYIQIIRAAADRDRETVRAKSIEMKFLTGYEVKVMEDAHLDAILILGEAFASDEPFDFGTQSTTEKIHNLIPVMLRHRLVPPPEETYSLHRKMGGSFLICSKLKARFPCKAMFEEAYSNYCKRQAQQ
Sequence of Mast/stem cell growth factor receptor Kit (Homo sapiens) (P10721 whole entry): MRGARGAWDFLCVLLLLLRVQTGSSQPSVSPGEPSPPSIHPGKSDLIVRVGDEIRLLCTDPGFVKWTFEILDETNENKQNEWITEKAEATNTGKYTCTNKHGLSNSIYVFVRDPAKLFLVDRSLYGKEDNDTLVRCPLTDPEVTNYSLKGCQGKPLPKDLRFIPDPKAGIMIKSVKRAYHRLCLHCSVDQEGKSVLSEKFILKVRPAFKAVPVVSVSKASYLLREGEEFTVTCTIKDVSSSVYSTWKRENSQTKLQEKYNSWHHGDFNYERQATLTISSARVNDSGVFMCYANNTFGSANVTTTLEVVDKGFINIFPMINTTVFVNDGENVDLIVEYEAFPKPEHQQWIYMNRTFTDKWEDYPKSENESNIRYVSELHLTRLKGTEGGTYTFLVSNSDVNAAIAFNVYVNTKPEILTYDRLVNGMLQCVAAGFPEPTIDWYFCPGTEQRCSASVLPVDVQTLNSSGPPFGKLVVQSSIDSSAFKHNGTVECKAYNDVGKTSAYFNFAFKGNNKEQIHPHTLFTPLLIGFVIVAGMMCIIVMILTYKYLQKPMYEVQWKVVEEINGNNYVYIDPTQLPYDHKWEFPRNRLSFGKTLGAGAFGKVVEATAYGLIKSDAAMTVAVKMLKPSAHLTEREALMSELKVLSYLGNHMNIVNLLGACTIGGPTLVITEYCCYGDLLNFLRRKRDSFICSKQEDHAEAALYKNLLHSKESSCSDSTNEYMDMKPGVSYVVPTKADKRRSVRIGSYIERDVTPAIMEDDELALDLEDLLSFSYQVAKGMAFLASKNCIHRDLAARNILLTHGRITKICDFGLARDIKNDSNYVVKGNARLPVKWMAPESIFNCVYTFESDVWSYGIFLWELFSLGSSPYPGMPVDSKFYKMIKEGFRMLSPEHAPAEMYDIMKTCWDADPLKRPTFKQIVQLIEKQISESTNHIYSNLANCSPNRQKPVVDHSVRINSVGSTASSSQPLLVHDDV
Sequence of Ephrin type-B receptor 1 (Homo sapiens) (P54762 whole entry): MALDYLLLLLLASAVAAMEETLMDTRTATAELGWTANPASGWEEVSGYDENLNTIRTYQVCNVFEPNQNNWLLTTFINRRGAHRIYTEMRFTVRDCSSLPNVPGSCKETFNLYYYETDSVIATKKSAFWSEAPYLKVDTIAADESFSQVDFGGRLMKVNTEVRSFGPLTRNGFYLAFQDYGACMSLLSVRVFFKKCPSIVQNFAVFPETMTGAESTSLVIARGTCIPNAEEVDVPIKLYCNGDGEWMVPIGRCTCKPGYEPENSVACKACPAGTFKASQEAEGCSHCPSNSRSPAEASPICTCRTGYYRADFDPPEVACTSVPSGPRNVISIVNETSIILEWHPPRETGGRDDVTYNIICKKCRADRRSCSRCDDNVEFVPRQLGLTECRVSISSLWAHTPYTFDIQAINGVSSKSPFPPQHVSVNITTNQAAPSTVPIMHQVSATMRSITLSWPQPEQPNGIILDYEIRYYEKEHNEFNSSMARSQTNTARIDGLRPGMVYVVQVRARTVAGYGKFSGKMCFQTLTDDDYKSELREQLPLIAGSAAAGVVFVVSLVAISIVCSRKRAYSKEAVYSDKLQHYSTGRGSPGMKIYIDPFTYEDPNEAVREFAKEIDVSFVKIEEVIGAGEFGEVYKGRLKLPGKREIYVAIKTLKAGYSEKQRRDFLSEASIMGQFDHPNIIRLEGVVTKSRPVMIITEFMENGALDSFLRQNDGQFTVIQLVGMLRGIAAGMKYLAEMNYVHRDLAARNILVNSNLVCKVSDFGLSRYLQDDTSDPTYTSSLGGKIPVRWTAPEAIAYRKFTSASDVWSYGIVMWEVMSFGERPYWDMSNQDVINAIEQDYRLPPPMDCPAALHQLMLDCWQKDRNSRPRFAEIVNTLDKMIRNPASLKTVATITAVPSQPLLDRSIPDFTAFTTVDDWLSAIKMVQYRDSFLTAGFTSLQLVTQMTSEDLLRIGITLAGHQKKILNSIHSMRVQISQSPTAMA
Sequence of Dual specificity mitogen-activated protein kinase kinase 3 (Homo sapiens) (P46734 whole entry): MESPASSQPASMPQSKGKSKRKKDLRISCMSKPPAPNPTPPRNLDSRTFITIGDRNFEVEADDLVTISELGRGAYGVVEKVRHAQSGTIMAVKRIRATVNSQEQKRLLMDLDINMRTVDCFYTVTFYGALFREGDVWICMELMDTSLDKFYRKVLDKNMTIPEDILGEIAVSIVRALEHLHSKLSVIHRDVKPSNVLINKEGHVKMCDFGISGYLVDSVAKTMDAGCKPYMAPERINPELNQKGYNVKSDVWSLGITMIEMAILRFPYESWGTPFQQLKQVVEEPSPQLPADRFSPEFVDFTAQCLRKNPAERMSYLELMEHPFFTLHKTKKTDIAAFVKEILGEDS

CS(=O)(=O)N1CCCC(NC(=O)[C@H](CCC2CCCCC2)NC(=O)c2ccc(CNC(=O)c3cnc4ccccn34)cc2)C1 (stereo not given in full) [SR-302]
inactive: [1] 100% | [2] 100% | [3] 100% | [4] 100% | [5] 100% | [6] 100% | [7] 65% | [8] 91% | [9] 93% | [10] 89% | [11] 97% | [12] 100% | [13] 100% | [14] 86% | [15] 90% | [16] 100% | [17] 83% | [18] 100% | [19] 100% | [20] 100% | [21] 76% | [22] 74% | [23] 100% | [24] 69% | [25] 85% | [26] 95% | [27] 91% | [28] 81% | [29] 86% | [30] 94% | [31] 100% | [32] 67% | [33] 100% | [34] 100% | [35] 96% | [36] 94% | [37] 100% | [38] 100% | [39] 100% | [40] 100% | [41] 90% | [42] 97% | [43] 94% | [44] 75% | [45] 100%

CS(=O)(=O)N1CCCC(NC(=O)[C@H](CCC2CCCCC2)NC(=O)c2ccc(CNc3ncnc4c3nnn4-c3ccccc3)cc2)C1 (stereo not given in full) [SR-301]
inactive: [1] 97% | [2] 100% | [3] 96% | [4] 100% | [5] 100% | [6] 100% | [7] 100% | [8] 81% | [9] 95% | [10] 100% | [11] 96% | [12] 93% | [13] 80% | [14] 100% | [15] 83% | [16] 100% | [17] 100% | [18] 100% | [19] 66% | [20] 76% | [21] 100% | [22] 100% | [23] 85% | [24] 87% | [25] 85% | [26] 100% | [27] 100% | [28] 83% | [29] 100% | [30] 100% | [31] 100% | [32] 91% | [33] 100% | [34] 100% | [35] 100% | [36] 100% | [37] 95% | [38] 94% | [39] 82% | [40] 93% | [41] 81% | [42] 100% | [43] 100% | [44] 88% | [45] 100%
